Data: Sander's compilation of Henry's law constants (doi:10.1021/es00081a021)

Assay: Henry solubility constant Hcp at 298.15 K (mol/(m3 Pa))
Details: reference: Brunner et al. (1990)

| Structure (SMILES) | Henry solubility constant Hcp |
| --- | --- |
| Clc1ccc(-c2c(Cl)c(Cl)cc(Cl)c2Cl)c(Cl)c1 [2,2',3,4',5,6-hexachlorobiphenyl] | 0.19 |
| Clc1cccc(-c2c(Cl)c(Cl)c(Cl)c(Cl)c2Cl)c1 [2,3,3',4,5,6-hexachlorobiphenyl] | 0.49 |
| Clc1ccc(Cl)c(-c2ccccc2)c1Cl [2,3,6-trichlorobiphenyl] | 0.045 |
| Clc1cc(Cl)c(-c2c(Cl)cccc2Cl)cc1Cl [2,2',4,5,6'-pentachlorobiphenyl] | 0.11 |
| Clc1cc(Cl)cc(-c2cc(Cl)c(Cl)c(Cl)c2Cl)c1 [2,3,3',4,5,5'-hexachlorobiphenyl] | 0.49 |
| Clc1cc(-c2c(Cl)cc(Cl)c(Cl)c2Cl)c(Cl)c(Cl)c1Cl [2,2',3,3',4,4',5,6'-octachlorobiphenyl] | 0.99 |
| Clc1ccc(Cl)c(-c2c(Cl)ccc(Cl)c2Cl)c1Cl [2,2',3,3',6,6'-hexachlorobiphenyl] | 0.11 |
| Clc1ccccc1-c1c(Cl)cccc1Cl [2,2',6-trichlorobiphenyl] | 0.043 |
| Clc1ccc(Cl)c(-c2cc(Cl)c(Cl)c(Cl)c2Cl)c1 [2,2',3,4,5,5'-hexachlorobiphenyl] | 0.43 |
| Clc1cc(Cl)c(-c2ccccc2)c(Cl)c1Cl [2,3,4,6-tetrachlorobiphenyl] | 0.047 |
| Clc1cc(Cl)c(Cl)c(-c2c(Cl)ccc(Cl)c2Cl)c1 [2,2',3,3',5,6'-hexachlorobiphenyl] | 0.18 |
| Clc1cc(Cl)c(Cl)c(-c2ccc(Cl)c(Cl)c2Cl)c1 [2,2',3,3',4,5'-hexachlorobiphenyl] | 0.27 |
| Clc1cccc(-c2cc(Cl)c(Cl)cc2Cl)c1 [2,3',4,5-tetrachlorobiphenyl] | 0.099 |
| Clc1cc(Cl)c(-c2ccc(Cl)c(Cl)c2Cl)cc1Cl [2,2',3,4,4',5'-hexachlorobiphenyl] | 0.47 |
| Clc1cc(-c2c(Cl)c(Cl)cc(Cl)c2Cl)c(Cl)c(Cl)c1Cl [2,2',3,3',4,5,5',6'-octachlorobiphenyl] | 0.99 |
| Clc1ccc(-c2cc(Cl)c(Cl)cc2Cl)c(Cl)c1 [2,2',4,4',5-pentachlorobiphenyl] | 0.13 |
| Clc1ccc(Cl)c(-c2cc(Cl)ccc2Cl)c1 [2,2',5,5'-tetrachlorobiphenyl] | 0.049 |
| Clc1cc(Cl)c(-c2cc(Cl)c(Cl)cc2Cl)cc1Cl [2,2',4,4',5,5'-hexachlorobiphenyl] | 0.43 |
| Clc1cccc(-c2cc(Cl)cc(Cl)c2)c1 [3,3',5-trichlorobiphenyl] | 0.058 |

| Structure (SMILES) | Henry solubility constant Hcp |
| --- | --- |
| Clc1ccc(Cl)c(-c2ccc(Cl)c(Cl)c2)c1 [2,3',4',5-tetrachlorobiphenyl] | 0.099 |
| Clc1cc(-c2cc(Cl)c(Cl)c(Cl)c2Cl)c(Cl)c(Cl)c1Cl [2,2',3,3',4,4',5,5'-octachlorobiphenyl] | 0.99 |
| Clc1ccc(-c2ccc(Cl)c(Cl)c2Cl)c(Cl)c1 [2,2',3,4,4'-pentachlorobiphenyl] | 0.15 |
| Clc1cc(Cl)c(Cl)c(-c2cc(Cl)c(Cl)cc2Cl)c1 [2,2',3,4',5,5'-hexachlorobiphenyl] | 0.39 |
| Clc1ccc(Cl)c(-c2ccccc2Cl)c1 [2,2',5-trichlorobiphenyl] | 0.039 |
| Clc1cc(Cl)c(-c2cccc(Cl)c2Cl)cc1Cl [2,2',3,4',5'-pentachlorobiphenyl] | 0.13 |
| Clc1ccc(-c2ccc(Cl)c(Cl)c2)cc1 [3,4,4'-trichlorobiphenyl] | 0.099 |
| Clc1cccc(Cl)c1-c1c(Cl)cccc1Cl [2,2',6,6'-tetrachlorobiphenyl] | 0.049 |
| Clc1cccc(-c2cc(Cl)c(Cl)c(Cl)c2Cl)c1Cl [2,2',3,3',4,5-hexachlorobiphenyl] | 0.34 |
| Clc1ccc(-c2ccccc2)cc1Cl [3,4-dichlorobiphenyl] | 0.07 |
| Clc1ccc(Cl)c(-c2c(Cl)c(Cl)cc(Cl)c2Cl)c1Cl [2,2',3,3',5,6,6'-heptachlorobiphenyl] | 0.41 |
| Clc1cc(Cl)c(-c2c(Cl)c(Cl)cc(Cl)c2Cl)c(Cl)c1Cl [2,2',3,3',4,5',6,6'-octachlorobiphenyl] | 0.58 |
| Clc1cccc(-c2c(Cl)c(Cl)c(Cl)c(Cl)c2Cl)c1Cl [2,2',3,3',4,5,6-heptachlorobiphenyl] | 0.7 |
| Clc1ccc(-c2cc(Cl)ccc2Cl)cc1 [2,4',5-trichlorobiphenyl] | 0.052 |
| Clc1cc(Cl)cc(-c2c(Cl)c(Cl)cc(Cl)c2Cl)c1 [2,3,3',5,5',6-hexachlorobiphenyl] | 0.34 |
| Clc1cccc(-c2cccc(Cl)c2Cl)c1Cl [2,2',3,3'-tetrachlorobiphenyl] | 0.099 |
| Clc1cc(-c2c(Cl)ccc(Cl)c2Cl)c(Cl)c(Cl)c1Cl [2,2',3,3',4,5,6'-heptachlorobiphenyl] | 0.7 |
| Clc1cc(Cl)c(Cl)c(-c2c(Cl)c(Cl)cc(Cl)c2Cl)c1Cl [2,2',3,3',5,5',6,6'-octachlorobiphenyl] | 0.55 |
| Clc1cccc(-c2ccccc2Cl)c1 [2,3'-dichlorobiphenyl] | 0.039 |
